Assay [1] relates to ERK1/2 phosphorylation of p90RSK in HT29 cells. Kind of assay: pRSK MSD Assay in HT29 cells. The format is cell-based. The following applies: Homo sapiens, HT-29, read-out: ERK1/ERK2 PRSK MSD HT29 EC50. In outline: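 Serum-starved HT29 cells (0.1% FBS overnight) treated with test compound for 120 min at 37° C, then lysed with protease and phosphatase inhibitors. Phospho-p90RSK quantified by MSD sandwich immunoassay: RSK capture antibody, phospho-RSK detection antibody plus Sulfo-tagged antibody, electrochemiluminescence read.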

In assay [2] the test system is ERK1/2 phosphorylation of p90RSK in HCT116 cells. As to the kind of experiment: Detection of total and phospho-RSK by MSD ELISA (HCT116). The format is cell-based. To be noted: Homo sapiens, HCT-116, read-out: ERK1/ERK2 PRSK HCT116 EC50. In outline:
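HCT116 cells treated with compound in RPMI/10% FBS for 2 h at 37° C, then lysed. Phospho-RSK (Ser380) and total RSK in lysates measured by MSD sandwich electrochemiluminescence ELISA as a readout of ERK1/2 activity.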
A general note: In an ELISA, binding on a coated surface is turned into a signal by an enzyme label.

SMILES strings stand for the structures. A value given as a limit tells only on which side of the number the result lay.

In the case of `C=CC(=O)Nc1cc(O[C@H](C)C(=O)N2CCN(C(C)=O)CC2)ccc1Nc1nc(Nc2cc(OC)ncc2C)ncc1C(F)(F)F` [Compound I-409, (R)—N-(5-((1-(4-acetylpiperazin-1-yl)-1-oxopropan-2-yl)oxy)-2-((2-((2-methoxy-5-methylpyridin-4-yl)amino)-5-(trifluoromethyl)pyrimidin-4-yl)amino)phenyl)acrylamide], the EC50 in assay [1] and in assay [2] was 0.501 to 0.999 µM throughout.

As to `C=CC(=O)Nc1cc(C)ccc1Nc1nc(Nc2cc(OC)ncc2C(F)F)ncc1C(F)(F)F` [Compound I-431, N-(2-((2-((5-(difluoromethyl)-2-methoxypyridin-4-yl)amino)-5-(trifluoromethyl)pyrimidin-4-yl)amino)-5-methylphenyl)acrylamide], the EC50 in assay [1] was 0.101 to 0.5 µM; in assay [2], 0.501 to 0.999 µM.

For `C=CC(=O)Nc1cc(C)ccc1Nc1nc(Nc2cc(-c3nc[nH]n3)ccc2C)ncc1C(F)(F)F` [Compound I-373, N-(5-methyl-2-((2-((2-methyl-5-(1H-1,2,4-triazol-3-yl)phenyl)amino)-5-(trifluoromethyl)pyrimidin-4-yl)amino)phenyl)acrylamide], the EC50 was in the range of 0.101 to 0.5 µM in assay [1] and 0.501 to 0.999 µM in assay [2].

In the case of `C=CC(=O)Nc1cc(C)ccc1Nc1nc(Nc2cc(OC(C)C)ncc2C)ncc1C(F)(F)F` [Compound I-369, N-(2-((2-((2-isopropoxy-5-methylpyridin-4-yl)amino)-5-(trifluoromethyl)pyrimidin-4-yl)amino)-5-methylphenyl)acrylamide], the EC50 in assay [1] and in assay [2] was > 1 µM throughout.

As to `C=CC(=O)Nc1cc(C)ccc1Nc1nc(Nc2cc(-c3c[nH]cn3)ccc2C)ncc1C(F)(F)F` [Compound I-378, N-(2-((2-((5-(1H-imidazol-4-yl)-2-methylphenyl)amino)-5-(trifluoromethyl)pyrimidin-4-yl)amino)-5-methylphenyl)acrylamide], the EC50 was 0.101 to 0.5 µM in assay [1] and > 1 µM in assay [2].

As to `C=CC(=O)Nc1cc(C)ccc1Nc1nc(NC2COC2)ncc1C(F)(F)F` [Compound I-420, N-(5-methyl-2-((2-(oxetan-3-ylamino)-5-(trifluoromethyl)pyrimidin-4-yl)amino)phenyl)acrylamide], the EC50 in assay [1] and in assay [2] was > 1 µM in each case.

For `C=CC(=O)Nc1cc(C(=O)N2CCN(S(C)(=O)=O)CC2)ccc1Nc1nc(Nc2cc(OC)ncc2C)ncc1C(F)(F)F` [Compound I-401, N-(2-((2-((2-methoxy-5-methylpyridin-4-yl)amino)-5-(trifluoromethyl)pyrimidin-4-yl)amino)-5-(4-(methylsulfonyl)piperazine-1-carbonyl)phenyl)acrylamide], the EC50 in assay [1] and in assay [2] was 0.101 to 0.5 µM each time.

As to `C=CC(=O)Nc1cc(C)ccc1Nc1nc(Nc2cc(OCC)ncc2C)ncc1C(F)(F)F` [Compound I-358, N-(2-((2-((2-ethoxy-5-methylpyridin-4-yl)amino)-5-(trifluoromethyl)pyrimidin-4-yl)amino)-5-methylphenyl)acrylamide], the EC50 in assay [1] is 0.101 to 0.5 µM; in assay [2] it was 0.501 to 0.999 µM.

`C=CC(=O)Nc1cc(C)ccc1Nc1nc(Nc2c[nH]c(=O)cc2C)ncc1C(F)(F)F` [Compound I-370, N-(5-methyl-2-((2-((4-methyl-6-oxo-1,6-dihydropyridin-3-yl)amino)-5-(trifluoromethyl)pyrimidin-4-yl)amino)phenyl)acrylamide]: the EC50 in assay [1] and in assay [2] was 0.501 to 0.999 µM each time.

For the compound `C=CC(=O)Nc1cc(CN2CCN(C(=O)CO)CC2)ccc1Nc1nc(Nc2cc(OC)ncc2C)ncc1C(F)(F)F` [Compound I-385, N-(5-((4-(2-hydroxyacetyl)piperazin-1-yl)methyl)-2-((2-((2-methoxy-5-methylpyridin-4-yl)amino)-5-(trifluoromethyl)pyrimidin-4-yl)amino)phenyl)acrylamide], the EC50 in assay [1] and in assay [2] was < 0.1 µM throughout.

In the case of `C=CC(=O)Nc1cc(C)ccc1Nc1nc(Nc2ccc3ocnc3c2)ncc1C(F)(F)F` [Compound I-375, N-(2-((2-(benzo[d]oxazol-5-ylamino)-5-(trifluoromethyl)pyrimidin-4-yl)amino)-5-methylphenyl)acrylamide], the EC50 in assay [1] and in assay [2] was > 1 µM throughout.

`C=CC(=O)Nc1cc(C)ccc1Nc1nc(Nc2cc(P(C)(C)=O)ncc2C)ncc1C(F)(F)F` [Compound I-343, N-(2-((2-((2-(dimethylphosphoryl)-5-methylpyridin-4-yl)amino)-5-(trifluoromethyl)pyrimidin-4-yl)amino)-5-methylphenyl)acrylamide]: the EC50 in assay [1] and in assay [2] was 0.101 to 0.5 µM throughout.

Regarding `C=CC(=O)Nc1cc(C)ccc1Nc1nc(Nc2nc(OC)nc(OC)n2)ncc1C(F)(F)F` [Compound I-371, N-(2-((2-((4,6-dimethoxy-1,3,5-triazin-2-yl)amino)-5-(trifluoromethyl)pyrimidin-4-yl)amino)-5-methylphenyl)acrylamide], the EC50 in assay [1] was 0.101 to 0.5 µM; in assay [2], > 1 µM.

Take `C=CC(=O)Nc1cc(CN2CCN(C(=O)c3ccccn3)CC2)ccc1Nc1nc(Nc2nc(OC)ncc2C)ncc1C(F)(F)F` [Compound I-391, N-(2-((2-((2-methoxy-5-methylpyrimidin-4-yl)amino)-5-(trifluoromethyl)pyrimidin-4-yl)amino)-5-((4-picolinoylpiperazin-1-yl)methyl)phenyl)acrylamide]: the EC50 in assay [1] and in assay [2] was 0.101 to 0.5 µM in each case.

In the case of `C=CC(=O)Nc1cc(CN2CCOCC2)ccc1Nc1nc(Nc2cc(OC)ncc2C)ncc1C(F)(F)F` [Compound I-399, N-(2-((2-((2-methoxy-5-methylpyridin-4-yl)amino)-5-(trifluoromethyl)pyrimidin-4-yl)amino)-5-(morpholinomethyl)phenyl)acrylamide], the EC50 in assay [1] is 0.501 to 0.999 µM; in assay [2] it was 0.101 to 0.5 µM.

In the case of `C=CC(=O)Nc1cc(CN2CCN(C(=O)CO)CC2)ccc1Nc1nc(Nc2nc(OC)ncc2C)ncc1C(F)(F)F` [Compound I-386, N-(5-((4-(2-hydroxyacetyl)piperazin-1-yl)methyl)-2-((2-((2-methoxy-5-methylpyrimidin-4-yl)amino)-5-(trifluoromethyl)pyrimidin-4-yl)amino)phenyl)acrylamide], the EC50 in assay [1] and in assay [2] was 0.501 to 0.999 µM in each case.

Take `C=CC(=O)Nc1cc(CN2CCN(C(=O)c3cnccn3)CC2)ccc1Nc1nc(Nc2nc(OC)ncc2C)ncc1C(F)(F)F` [Compound I-393, N-(2-((2-((2-methoxy-5-methylpyrimidin-4-yl)amino)-5-(trifluoromethyl)pyrimidin-4-yl)amino)-5-((4-(pyrazine-2-carbonyl)piperazin-1-yl)methyl)phenyl)acrylamide]: the EC50 in assay [1] and in assay [2] was 0.501 to 0.999 µM throughout.

For the compound `C=CC(=O)Nc1cc(C)ccc1Nc1nc(Nc2cc(C(=O)NC)nn2C)ncc1C(F)(F)F` [Compound I-424, 5-((4-((2-acrylamido-4-methylphenyl)amino)-5-(trifluoromethyl)pyrimidin-2-yl)amino)-N,1-dimethyl-1H-pyrazole-3-carboxamide], the EC50 in assay [1] and in assay [2] was 0.101 to 0.5 µM each time.

With `C=CC(=O)Nc1cc(C)ccc1Nc1nc(Nc2cc(C(N)=O)nn2C)ncc1C(F)(F)F` [Compound I-423, 5-((4-((2-acrylamido-4-methylphenyl)amino)-5-(trifluoromethyl)pyrimidin-2-yl)amino)-1-methyl-1H-pyrazole-3-carboxamide], the EC50 in assay [1] and in assay [2] was > 1 µM throughout.

`C=CC(=O)Nc1cc(O[C@@H](C)C(=O)N2CCN(C(C)=O)CC2)ccc1Nc1nc(Nc2cc(OC)ncc2C)ncc1C(F)(F)F` [Compound I-425, (S)—N-(5-((1-(4-acetylpiperazin-1-yl)-1-oxopropan-2-yl)oxy)-2-((2-((2-methoxy-5-methylpyridin-4-yl)amino)-5-(trifluoromethyl)pyrimidin-4-yl)amino)phenyl)acrylamide]: the EC50 in assay [1] fell in the range of 0.101 to 0.5 µM; in assay [2], 0.501 to 0.999 µM.

As to `C=CC(=O)Nc1cc(CN2CCN(C(C)=O)CC2)ccc1Nc1nc(Nc2nc(OC)ncc2C)ncc1C(F)(F)F` [Compound I-382, N-(5-((4-acetylpiperazin-1-yl)methyl)-2-((2-((2-methoxy-5-methylpyrimidin-4-yl)amino)-5-(trifluoromethyl)pyrimidin-4-yl)amino)phenyl)acrylamide], the EC50 was in the range of 0.101 to 0.5 µM in assay [1] and 0.501 to 0.999 µM in assay [2].

Turning to `C=CC(=O)Nc1cc(OC(F)(F)F)ccc1Nc1nc(Nc2cc(OC)ncc2C)ncc1C(F)(F)F` [Compound I-407, N-(2-((2-((2-methoxy-5-methylpyridin-4-yl)amino)-5-(trifluoromethyl)pyrimidin-4-yl)amino)-5-(trifluoromethoxy)phenyl)acrylamide], the figures for the EC50 in assay [1] and in assay [2] were < 0.1 µM and 0.101 to 0.5 µM, respectively.

With `C=CC(=O)Nc1cc(C)ccc1Nc1nc(Nc2cnc(OC)cc2C)ncc1C(F)(F)F` [Compound I-350, N-(2-((2-((6-methoxy-4-methylpyridin-3-yl)amino)-5-(trifluoromethyl)pyrimidin-4-yl)amino)-5-methylphenyl)acrylamide], the EC50 in assay [1] and in assay [2] was > 1 µM throughout.

For `C=CC(=O)Nc1cc(CN2CCN(C(=O)c3cccnc3)CC2)ccc1Nc1nc(Nc2nc(OC)ncc2C)ncc1C(F)(F)F` [Compound I-392, N-(2-((2-((2-methoxy-5-methylpyrimidin-4-yl)amino)-5-(trifluoromethyl)pyrimidin-4-yl)amino)-5-((4-nicotinoylpiperazin-1-yl)methyl)phenyl)acrylamide], the EC50 in assay [1] was 0.501 to 0.999 µM; in assay [2] it was > 1 µM.

Values taken from US9561228B2 (Celgene Avilomics Research, Inc., priority 2013, dated 2017).
